Columns and labels:
[1] = biological target: 5-hydroxytryptamine receptor 2A (Rattus norvegicus, UniProt P14842); test: Displacement of [3H]-ketanserine from serotonin 5-HT2A receptor in rat brain cortex homogenates incubated for 30 mins by liquid scintillation counting
D(2) dopamine receptor = D(2) dopamine receptor (Rattus norvegicus, UniProt P61169)
[2] = biological target: T1, 5-hydroxytryptamine receptor 1A (Rattus norvegicus, UniProt P19327)
T1 sequence (P19327 whole entry): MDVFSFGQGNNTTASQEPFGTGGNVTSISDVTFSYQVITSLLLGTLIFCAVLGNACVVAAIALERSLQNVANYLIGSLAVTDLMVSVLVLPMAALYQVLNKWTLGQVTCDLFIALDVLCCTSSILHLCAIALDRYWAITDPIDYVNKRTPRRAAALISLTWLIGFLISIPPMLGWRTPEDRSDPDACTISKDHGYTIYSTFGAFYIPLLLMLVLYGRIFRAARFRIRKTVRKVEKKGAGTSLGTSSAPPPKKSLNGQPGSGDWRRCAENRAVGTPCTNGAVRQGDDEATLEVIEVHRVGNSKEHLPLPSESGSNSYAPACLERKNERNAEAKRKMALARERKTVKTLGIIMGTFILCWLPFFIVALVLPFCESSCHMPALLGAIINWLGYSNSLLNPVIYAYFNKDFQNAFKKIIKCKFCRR

Sequence of 5-hydroxytryptamine receptor 2A (P14842 whole entry): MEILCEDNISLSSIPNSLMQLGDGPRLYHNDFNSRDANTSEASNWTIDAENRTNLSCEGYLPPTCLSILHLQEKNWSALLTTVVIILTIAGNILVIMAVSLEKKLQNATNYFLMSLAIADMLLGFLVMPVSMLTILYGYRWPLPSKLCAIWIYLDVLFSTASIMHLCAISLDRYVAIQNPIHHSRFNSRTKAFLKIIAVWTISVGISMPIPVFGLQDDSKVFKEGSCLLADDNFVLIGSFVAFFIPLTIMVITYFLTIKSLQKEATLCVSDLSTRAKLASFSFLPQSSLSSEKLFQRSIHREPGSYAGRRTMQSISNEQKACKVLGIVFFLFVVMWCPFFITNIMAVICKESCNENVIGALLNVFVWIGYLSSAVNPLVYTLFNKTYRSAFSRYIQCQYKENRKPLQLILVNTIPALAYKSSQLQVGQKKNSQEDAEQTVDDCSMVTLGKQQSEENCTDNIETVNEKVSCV
Sequence of D(2) dopamine receptor (P61169 whole entry): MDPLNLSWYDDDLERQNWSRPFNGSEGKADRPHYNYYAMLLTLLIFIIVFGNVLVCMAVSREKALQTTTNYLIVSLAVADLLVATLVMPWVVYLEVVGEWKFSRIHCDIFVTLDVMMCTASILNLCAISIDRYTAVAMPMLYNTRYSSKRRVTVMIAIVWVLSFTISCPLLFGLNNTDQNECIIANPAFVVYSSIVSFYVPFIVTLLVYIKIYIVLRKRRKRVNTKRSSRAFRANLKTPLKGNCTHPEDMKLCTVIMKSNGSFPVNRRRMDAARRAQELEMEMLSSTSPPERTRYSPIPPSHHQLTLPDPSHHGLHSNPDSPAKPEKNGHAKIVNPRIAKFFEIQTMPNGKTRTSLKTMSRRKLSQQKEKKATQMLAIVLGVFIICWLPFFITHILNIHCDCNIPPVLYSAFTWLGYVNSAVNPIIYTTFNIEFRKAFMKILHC

Ki [1]	Ki (D(2) dopamine receptor)	Ki [2]	SMILES
0.207 µM	1.22 µM	0.269 µM	O=C(CCN1CCN(c2cccc(Cl)c2Cl)CC1)c1cc2c3c(c1)CCC(=O)N3CCC2
0.0347 µM	0.0891 µM	0.168 µM	O=C(CCCCCN1CCC(c2noc3cc(F)ccc23)CC1)c1cc2c3c(c1)CCN3C(=O)CC2
0.0179 µM	0.0192 µM	0.0253 µM	O=C(CCCN1CCC(c2noc3cc(F)ccc23)CC1)c1cc2c3c(c1F)CCC(=O)N3CC2
0.0523 µM	0.0582 µM	0.0629 µM	O=C(CCN1CCC(c2noc3cc(F)ccc23)CC1)c1cc2c3c(c1)CCC(=O)N3CCC2
0.0879 µM	0.0914 µM	0.153 µM	O=C(CCCN1CCN(c2nsc3ccccc23)CC1)c1cc2c3c(c1)CCC(=O)N3CCC2
0.0293 µM	0.0465 µM	0.0387 µM	O=C1CCc2cc(CCCN3CCC(c4noc5cc(F)ccc45)CC3)cc3c2N1CC3
0.752 µM	1.76 µM	1.86 µM	O=C(CCN1CCN(c2ccccc2)CC1)c1cc2c3c(c1)CCC(=O)N3CCC2
0.0199 µM	0.0284 µM	0.0196 µM	O=C1CCc2cc(C(O)CCN3CCC(c4noc5cc(F)ccc45)CC3)cc3c2N1CCC3 (centres undefined)
0.175 µM	0.189 µM	0.0846 µM	Cc1cccc(N2CCN(CCC(=O)c3cc4c5c(c3)CCN5C(=O)CC4)CC2)c1C
0.0739 µM	0.0442 µM	0.0586 µM	O=C1CCc2cc(CCCN3CCC(c4noc5cc(F)ccc45)CC3)cc3c2N1CCC3
0.0596 µM	0.0196 µM	0.0293 µM	O=C1CCc2cc(C(O)CCN3CCC(c4noc5cc(F)ccc45)CC3)cc3c2N1CC3 (centres undefined)
0.0589 µM	0.185 µM	0.169 µM	Cc1cccc(N2CCN(CCCC(=O)c3cc4c5c(c3)CCC(=O)N5CCC4)CC2)c1C
0.0925 µM	0.188 µM	0.0816 µM	O=C(CCN1CCN(c2cccc(Cl)c2Cl)CC1)c1cc2c3c(c1)CCN3C(=O)CC2
0.765 µM	0.9 µM	> 2 µM	O=C(CN1CCC(c2noc3cc(F)ccc23)CC1)c1cc2c3c(c1)CCC(=O)N3CCC2
0.0834 µM	0.0858 µM	0.0829 µM	CC1CC(=O)N2CCCc3cc(CCCCN4CCC(c5noc6cc(F)ccc56)CC4)cc1c32 (centres undefined)
0.0839 µM	0.154 µM	0.098 µM	O=C1CCc2cc(CCCCN3CCN(c4nsc5ccccc45)CC3)cc3c2N1CCC3
0.72 µM	> 2 µM	1.63 µM	O=C(CCN1CCN(c2ccc(Cl)cc2)CC1)c1cc2c3c(c1)CCC(=O)N3CCC2
0.186 µM	0.582 µM	0.196 µM	O=C1CCc2cc(CCCN3CCN(c4cccc(Cl)c4Cl)CC3)cc3c2N1CCC3
0.0223 µM	0.0182 µM	0.0329 µM	O=C(CCCN1CCC(c2noc3cc(F)ccc23)CC1)c1cc2c3c(c1)CCC(=O)N3CCC2

Ki [1]	Ki (D(2) dopamine receptor)	Ki [2]	SMILES
0.178 µM	> 2 µM	0.965 µM	COc1ccccc1N1CCN(CCC(=O)c2cc3c4c(c2)CCC(=O)N4CCC3)CC1
0.675 µM	1.66 µM	1.66 µM	O=C(CCN1CCN(c2ccccn2)CC1)c1cc2c3c(c1)CCC(=O)N3CCC2
0.0503 µM	0.0499 µM	0.0318 µM	O=C(CCCN1CCN(c2nsc3ccccc23)CC1)c1cc2c3c(c1)CCN3C(=O)CC2
0.0798 µM	0.283 µM	0.149 µM	O=C(CCCN1CCN(c2cccc(Cl)c2Cl)CC1)c1cc2c3c(c1)CCC(=O)N3CCC2
0.0322 µM	0.0621 µM	0.0423 µM	CC1CC(=O)N2CCCc3cc(C(=O)CCCN4CCC(c5noc6cc(F)ccc56)CC4)cc1c32 (centres undefined)
0.388 µM	0.574 µM	0.474 µM	N#Cc1ccc(N2CCN(CCC(=O)c3cc4c5c(c3)CCN5C(=O)CC4)CC2)c(F)c1
0.0219 µM	0.0183 µM	0.0191 µM	O=C(CCCN1CCC(c2noc3cc(F)ccc23)CC1)c1cc2c3c(c1F)CCN3C(=O)CC2
0.557 µM	> 2 µM	1.97 µM	O=C(CCN1CCN(c2ncccn2)CC1)c1cc2c3c(c1)CCC(=O)N3CCC2
0.0242 µM	0.0297 µM	0.0791 µM	O=C1CCc2cc(C(O)CCCN3CCC(c4noc5cc(F)ccc45)CC3)cc3c2N1CCC3 (centres undefined)
0.0191 µM	0.0318 µM	0.0326 µM	O=C(CCCCN1CCC(c2noc3cc(F)ccc23)CC1)c1cc2c3c(c1)CCC(=O)N3CCC2
0.0583 µM	0.0432 µM	0.054 µM	O=C1CCc2cc(CCCCCN3CCC(c4noc5cc(F)ccc45)CC3)cc3c2N1CC3
0.0593 µM	0.0743 µM	0.0691 µM	O=C1CCc2cc(CCCCN3CCC(c4noc5cc(F)ccc45)CC3)cc3c2N1CCC3
0.0174 µM	0.0197 µM	0.0164 µM	O=C(CCN1CCC(c2noc3cc(F)ccc23)CC1)c1cc2c3c(c1)CCN3C(=O)CC2
0.072 µM	0.182 µM	0.129 µM	O=C(CCN1CCN(c2nsc3ccccc23)CC1)c1cc2c3c(c1)CCC(=O)N3CCC2
0.207 µM	1.85 µM	0.196 µM	Cc1cccc(N2CCN(CCC(=O)c3cc4c5c(c3)CCC(=O)N5CCC4)CC2)c1C
0.173 µM	0.861 µM	0.392 µM	O=C(CCN1CCC(c2nc3ccccc3s2)CC1)c1cc2c3c(c1)CCC(=O)N3CCC2
0.0978 µM	0.394 µM	0.194 µM	O=C1CCc2cc(CCCCN3CCN(c4cccc(Cl)c4Cl)CC3)cc3c2N1CCC3
0.0684 µM	0.0888 µM	0.0546 µM	O=C(CCN1CCN(c2nsc3ccccc23)CC1)c1cc2c3c(c1)CCN3C(=O)CC2
0.0378 µM	0.104 µM	0.0539 µM	O=C(CCCN1CCN(c2cccc(Cl)c2Cl)CC1)c1cc2c3c(c1)CCN3C(=O)CC2

Source: ChEMBL document CHEMBL4270672, “Synthesis and Biological Evaluation of Fused Tricyclic Heterocycle Piperazine (Piperidine) Derivatives As Potential Multireceptor Atypical Antipsychotics” (J Med Chem, 2018)
